We go through five molecules from paper PMC11109052, “Metabolism characterization and toxicity of N-hydap, a marine candidate drug for lung cancer therapy by LC–MS method” (Natural Products and Bioprospecting, 2024).

In general, Km refers to the concentration of substrate that gives half-maximal velocity.

On the set-up of data set [1]: method as in PMID 17513814. As to conditions: 2nd-line therapy of SCLC; cited from earlier work.
Data set [2] has as its system MLMs. Kind of data set: Kinetics of N-hydap glucuronidation in MLMs. As to conditions: MLM. It counts as in vitro ADME, mouse. As to the method: (§1) In this study, the rats were executed by drawing blood from the abdominal aorta and mice were sacrificed with cervical dislocation before the liver and kidneys were excised. The liver and kidneys were removed, and washed with chilled cleansing solution (contains 8 mM KH2PO4, 5.6 mM EDTA·K2·2H2O, 1 mM DTT and 229.6 μM PMSF), homogenized in a tissue homogenate buffer with a pH of 7.4, (consisting of […], 8 mM K2HPO4, 250 mM sucrose, 1 mM EDTA·K2·2H2O and 229.6 μM PMSF). Subsequently, the homogenate was centrifuged at 10,400 rpm at 4 °C for 15 min, and the supernatant was then centrifuged at 35,000 rpm at 4 °C for 60 min. A 250 mM sucrose buffer was added to the pellet to reconstitute and the resuspension was stored at − 80 °C until use. Microsome protein concentrations were measured by Omni-Easy™ Instant BCA Protein Assay Kit.
(§2) Various microsomes including HLMs, HKMs, HIMs, RLMs, RKMs, MLMs and MKMs were involved in CYP and UGT reactions of N-hydap. […]
(§3) The substrate concentrations used for HLMs were 0.05, 0.5, 2, 2.5, 5, 10, 25, 50, and 100 μM. […] The rates of N-hydap-G by enzymes were expressed as nmol/mg/min, representing the amount of metabolites formed per minute per milligram of protein. Kinetic parameters were determined by analyzing the Eadie–Hofstee plots. […]

Data set [3] in a line: Pharmacokinetics studies in mice (plasma). In kind it is in vivo. The settings on record: mice. As to the method: Mice were fasted for 12 h with access to water before drug administration. N-Hydap was dissolved in a solution containing 50% methanol and water. Before administration, the drug was diluted with PBS to achieve concentrations of 5 mg/kg and 2 mg/kg for gastric gavage and tail vein administration, respectively. Blood samples (120 μL) were collected from the orbital venous plexus at 2, 5, 10, 15, 30, 60, 90, 120, 180, and 240 min after N-hydap administration. The blood samples were collected into heparinized micro-centrifuge tubes and immediately centrifuged at 8000 rpm for 5 min at 4 °C. Plasma samples were prepared by adding an internal standard (IS) solution, Tes to the samples, followed by vortexing. The mixtures were then centrifuged at 4 °C and 13,000 rpm for 15 min. The resulting supernatant was dried under vacuum for 3–4 h, and the dry powder was reconstituted with a solution of 50% methanol and water. Finally, the plasma samples were analyzed using LC–MS, following the previously described method.
DAS 2.0 was used to calculate pharmacokinetic parameters using the standard non-compartmental method. All results were presented as mean ± standard deviation and significant differences were analyzed using One-way ANOVA by GraphPad Prism 8. Statistical significance was defined as p < 0.05.

Data set [4] concerns the target T1, UGT1A3 (Homo sapiens, UniProt P35503).
T1 construct: purchased Cypex (Scotland, UK)
Kind of data set: Kinetics of N-hydap glucuronidation by recombinant UGT1A3. In kind it is in vitro ADME.

Data set [5] has as its system HKMs. Kind of data set: Kinetics of N-hydap glucuronidation in HKMs. In kind it is in vitro ADME, human. As to conditions: HKM. As to the method: (§4) Various microsomes including HLMs, HKMs, HIMs, RLMs, RKMs, MLMs and MKMs were involved in CYP and UGT reactions of N-hydap. A typical CYP incubation mixture included 0.5 mg/mL microsomes protein, 3.3 mM glucose-6-phosphate, 3.3 mM MgCl2, 0.4 U/mL glucose-6-phosphate dehydrogenase, and N-hydap (1, 2.5, or 10 μM) in the 50 mM potassium phosphate buffer (KPI, pH 7.4). The incubation mixture was preincubated at 37 °C for 5 min, and the reaction was started by adding NADP to form a NADPH-regenerating system. Simultaneously, the classic UGT reaction system consisted of 50 mM KPI, 5 mM MgCl2, 0.5 mg/mL microsomes, 0.125 mg/mL alamethicin, and 5.25 mg/mL saccharolactone. The reaction was initiated after supplying UDPGA. The CYP and UGT mixtures were incubated at 37 °C in a shaking water bath (80 rpm) for 1.5 h to enhance metabolite formation. To terminate the reaction, an ice-cold solution of Tes (50 ng/mL, dissolved in methanol and used as an internal standard) was added to half of the mixture volume. […]
as §3

Data set [6] deals with other UGT isoforms. Kind of data set: Incubation with recombinant human UGT isoforms: other isoforms. In kind it is in vitro ADME. As to conditions: recombinant UGT 2 μg/mL. As to the method:
Incubation of N-hydap (2.5 μM) with eight recombinant human CYP enzymes (CYP1A2, CYP2B6, CYP2C9, CYP2C19, CYP2D6, CYP3A4, CYP4A11 and CYP4F2) at three enzyme concentrations (2, 4, and 20 μg/mL) was conducted following the same procedure as described above for microsomes. Subsequently, incubation with N-hydap (1, 2.5, and 6 μM) and twelve recombinant human UGT isoforms (UGT1A1, UGT1A3, UGT1A4, UGT1A6, UGT1A7, UGT1A8, UGT1A9, UGT1A10, UGT2B4, UGT2B7, UGT2B15 and UGT2B17) was performed, with the enzyme concentration used at 2 μg/mL. All reactions were carried out in triplicate.

Data set [7] deals with T2, UGT1A1 (Homo sapiens, UniProt P22309).
T2 construct: purchased Cypex (Scotland, UK)
Kind of data set: Kinetics of N-hydap glucuronidation by recombinant UGT1A1. It counts as in vitro ADME.

The test system of data set [8] is MKMs. Kind of data set: Kinetics of N-hydap glucuronidation in MKMs. In kind it is in vitro ADME, mouse. The settings on record: MKM. As to the method: as §1, §2, §3
For data set [9], the system named is HIMs. Kind of data set: Kinetics of N-hydap glucuronidation in HIMs. In kind it is in vitro ADME, human. As to conditions: HIM. As to the method:
as §4, §3

Data set [10] relates to HLMs. Kind of data set: Kinetics of N-hydap glucuronidation in HLMs. It counts as in vitro ADME, human. As to conditions: HLM. As to the method:
as §4, §3

Data set [11] deals with RLMs. Kind of data set: Kinetics of N-hydap glucuronidation in RLMs. In kind it is in vitro ADME, rat. As to conditions: RLM. As to the method: as §1, §2, §3
In data set [12] the test system is RKMs. Kind of data set: Kinetics of N-hydap glucuronidation in RKMs. In kind it is in vitro ADME, rat. The settings on record: RKM. As to the method: as §1, §2, §3
A short description of data set [13]: Distribution studies in mice organs. In kind it is in vivo. The settings on record: 30 min and 4 h. As to the method: The heart, liver, spleen, lungs and kidneys were removed from mice after administering a dose of 5 mg/kg through oral gavage and 2 mg/kg through tail vein injection at 30 min and 240 min, followed by homogenization with normal saline. The resulting homogenate was centrifuged at 4 °C, 13,000 rpm for 20 min, and the supernatant was then mixed with the internal standard by vortexing. The mixtures were centrifuged at 4 °C, 13,000 rpm for 15 min. The resulting supernatant was then subjected to vacuum drying for 3–4 h. Lastly, the dried powder was reconstituted with a mixture of 50% methanol and water, and then centrifuged for LC–MS testing.

Data set [14] concerns SCLC. Also on record: method as in PMID 33683919. As to conditions: 3rd-line therapy of SCLC; cited from earlier work.
Substrate in data set [15]: CC1CCC2C(C=CC(C)C2C(=O)c2c(O)c(C3(O)CCC(O)C4OC43)cn(O)c2=O)C1
Kind of data set: Kinetics of N-hydap glucuronidation by recombinant UGT1A1. As to conditions: other: glucuronidation, pH 7.4, 37.0 °C. In kind it is in vitro ADME, human.

Substrate in data set [16]: CC1CCC2C(C=CC(C)C2C(=O)c2c(O)c(C3(O)CCC(O)C4OC43)cn(O)c2=O)C1
Kind of data set: Kinetics of N-hydap glucuronidation by recombinant UGT1A3. It counts as in vitro ADME, human. The settings on record: other: glucuronidation, pH 7.4, 37.0 °C.

`CC[C@@]1(O)C(=O)OCc2c1cc1n(c2=O)Cc2cc3c(CN(C)C)c(O)ccc3nc2-1` [topotecan]: in [1], the “grade 3/4 anemia” value was 31%, the neutropenia was 64% and the thrombocytopenia was 18%.
Turning to `CC1CCC2C(C=CC(C)C2C(=O)c2c(O)c(C3(O)CCC(OC4OC(C(=O)O)C(O)C(O)C4O)C4OC43)cn(O)c2=O)C1` (stereo not shown) [N-hydap-G], the Vmax is on record as 13.46 ± 1.32 peak area ratio/min/mg in [2]; 10.07 ± 0.98 peak area ratio/min/mg in [4]; 7.210 ± 0.72 peak area ratio/min/mg in data set [5]; 4.596 ± 0.37 peak area ratio/min/mg in data set [7]; 3.313 ± 0.51 peak area ratio/min/mg in [8]; 1.020 ± 0.066 peak area ratio/min/mg in data set [9]. The Vmax is listed as 5.126 ± 1.27 peak area ratio/min/mg in [10], 0.0567 ± 0.0014 peak area ratio/min/mg in data set [11] and 0.8051 ± 0.052 peak area ratio/min/mg in data set [12]. The “highest concentration in plasma, Rate (Am/Ai)” value in data set [3] (after oral administration of N-hydap 5 mg/kg) was determined as 1.632; in data set [3] (after tail vein injection of N-hydap 2 mg/kg) it was 0.085. The “maximum plasma concentration after oral gavage relative to intravenous injection, dose-corrected” value in data set [3] (1.632/0.085/2.5) came out at 7.68 times. For the same molecule, the “glucuronide detected after incubation with other UGT isoforms” value in [6] is on record as “negligible amount”. Also, the results for the “total distribution ratio, heart” value in data set [13] (oral 5 mg/kg) and in data set [13] (tail vein injection 2 mg/kg) were 2.61% and 11.92%, respectively. In addition, the “total distribution ratio, kidneys” value in data set [13] (oral 5 mg/kg) was 17.64%; in data set [13] (tail vein injection 2 mg/kg), 16.73%. For the same molecule, the “total distribution ratio, liver” value in [13] (oral 5 mg/kg) is given as 70.86%; in data set [13] (tail vein injection 2 mg/kg) it was 56.90%. For the same molecule, the “total distribution ratio, lungs” value in data set [13] (oral 5 mg/kg) is listed as 7.33%; in [13] (tail vein injection 2 mg/kg) it was 9.14%. The figures for the “total distribution ratio, spleen” value in data set [13] (oral 5 mg/kg) and in [13] (tail vein injection 2 mg/kg) were 1.56% and 5.31%, respectively.
nivolumab: 3rd-line therapy for SCLC: the overall survival entry in data set [14] was “does not prolong overall survival”.

B1: UGT1A1 (Homo sapiens) (protein)
chain: HAGKILLIPVDGSHWLSMLGAIQQLQQRGHEIVVLAPDASLYIRDGAFYTLKTYPVPFQREDVKESFVSLGHNVFENDSFLQRVIKTYKKIKKDSAMLLSGCSHLLHNKELMASLAESSFDVMLTDPFLPCSPIVAQYLSLPTVFFLHALPCSLEFEATQCPNPFSYVPRPLSSHSDHMTFLQRVKNMLIAFSQNFLCDVVYSPYATLASEFLQREVTVQDLLSSASVWLFRSDFVKDYPRPIMPNMVFVGGINCLHQNPLSQEFEAYINASGEHGIVVFSLGSMVSEIPEKKAMAIADALGKIPQTVLWRYTGTRPSNLANNTILVKWLPQNDLLGHPMTRAFITHAGSHGVYESICNGVPMVMMPLFGDQMDNAKRMETKGAGVTLNVLEMTSEDLENALKAVINDKSYKENIMRLSSLHKDRPVEPLDLAVFWVEFVMRHKGAPHLRPAAHDLTWYQYHSLDVIGFLLAVVLTVAFITFKCCAYGYRKCLGKKGRVKKAHKSKTH
notes: purchased Cypex (Scotland, UK)
For B1, in [15], the Km turned out to be 46.43 µM and the Vmax/Km amounted to 99.0 µL/min/mg.

B2: UGT1A3 (Homo sapiens) (protein)
chain: GKVLVVPIDGSHWLSMREVLRELHARGHQAVVLTPEVNMHIKEENFFTLTTYAISWTQDEFDRHVLGHTQLYFETEHFLKKFFRSMAMLNNMSLVYHRSCVELLHNEALIRHLNATSFDVVLTDPVNLCAAVLAKYLSIPTVFFLRNIPCDLDFKGTQCPNPSSYIPRLLTTNSDHMTFMQRVKNMLYPLALSYICHAFSAPYASLASELFQREVSVVDILSHASVWLFRGDFVMDYPRPIMPNMVFIGGINCANRKPLSQEFEAYINASGEHGIVVFSLGSMVSEIPEKKAMAIADALGKIPQTVLWRYTGTRPSNLANNTILVKWLPQNDLLGHPMTRAFITHAGSHGVYESICNGVPMVMMPLFGDQMDNAKRMETKGAGVTLNVLEMTSEDLENALKAVINDKSYKENIMRLSSLHKDRPVEPLDLAVFWVEFVMRHKGAPHLRPAAHDLTWYQYHSLDVIGFLLAVVLTVAFITFKCCAYGYRKCLGKKGRVKKAHKSKTH
notes: as for B1
With B2, in data set [16], the Km stood at 10.68 µM and the Vmax/Km is 942.9 µL/min/mg.
